One may read the IC50 as the point on the concentration scale where inhibition reaches its midpoint.

The structures appear in SMILES notation.

This experiment concerns the target T1, Recombinant human renin (Homo sapiens, UniProt P00797).
T1 construct: isolate the active form (residues 67-406); made in house; host or cells: FreeStyle 293-F cells, transient expression of pcDNA3.1(+)/hREN
T1 sequence (P00797 67-406): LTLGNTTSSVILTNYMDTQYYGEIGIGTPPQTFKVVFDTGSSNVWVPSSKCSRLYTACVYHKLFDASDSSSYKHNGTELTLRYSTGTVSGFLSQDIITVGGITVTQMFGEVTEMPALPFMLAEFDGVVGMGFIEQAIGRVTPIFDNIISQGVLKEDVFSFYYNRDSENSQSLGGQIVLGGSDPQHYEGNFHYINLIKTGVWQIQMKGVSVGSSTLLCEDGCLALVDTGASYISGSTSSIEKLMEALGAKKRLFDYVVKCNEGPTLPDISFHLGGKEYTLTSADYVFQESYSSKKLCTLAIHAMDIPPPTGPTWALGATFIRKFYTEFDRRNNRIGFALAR
Description: In vitro enzymatic activity assay of renin inhibitors (fluorescence, QXL520/HiLyteFluo488 peptide substrate). Format: biochemical. To be noted: recombinant human renin 3 nM, 1 μM substrate, pre-incubated 10 minutes at 37° C., incubation one hour, pH 7.4, 5% DMSO; read-out: IC50 of Exemplified Compounds Against Renin.
In the case of `COCCCOc1cccc(-n2c(-c3cccc(Cl)c3)c(C(=O)N3CCNCC3)[nH]c2=O)c1` [Example 42, 5-(3-Chlorophenyl)-1-(3-(3-methoxypropoxy)phenyl)-4-(piperazine-1-carbonyl)-1H-imidazol-2(3H)-one], the IC50 was > 1 µM.
Then `COCCOc1cccc(-n2c(-c3cccc(Cl)c3)c(C(=O)N3CCNCC3)[nH]c2=O)c1` [Example 43, 5-(3-Chlorophenyl)-1-(3-(2-methoxyethoxy)phenyl)-4-(piperazine-1-carbonyl)-1H-imidazol-2(3H)-one], with > 1 µM; and `O=C(c1[nH]c(=O)n(-c2nc3ccccc3[nH]2)c1-c1ccccc1)N1CCNCC1` [Example 44, 1-(1H-benzo[d]imidazol-2-yl)-5-phenyl-4-(piperazine-1-carbonyl)-1H-imidazol-2(3H)-one], with > 1 µM; and `O=C(c1c(-c2ccccc2)n(-c2ccccc2)c(=O)n1Cc1ccccc1)N1CCNCC1` [Example 45, 1-Benzyl-3,4-diphenyl-5-(piperazine-1-carbonyl)-1H-imidazol-2(3H)-one], with 0.1 to 0.5 µM.
Then `O=C(c1c(-c2ccccc2)n(-c2ccccn2)c(=O)n1Cc1ccccc1)N1CCNCC1` [Example 46, 1-Benzyl-4-phenyl-5-(piperazine-1-carbonyl)-3-(pyridin-2-yl)-1H-imidazol-2(3H)-one], with > 1 µM; and `Cc1cc(Cn2c(C(=O)N3CCNCC3)c(-c3ccccc3)n(-c3ccccc3)c2=O)no1` [Example 47, 1-((5-Methylisoxazol-3-yl)methyl)-3,4-diphenyl-5-(piperazine-1-carbonyl)-1H-imidazol-2(3H)-one], with > 1 µM; and `O=C(c1c(-c2ccccc2)n(-c2ccccc2)c(=O)n1Cc1nnc(C2CC2)s1)N1CCNCC1` [Example 48, 1-((5-Cyclopropyl-1,3,4-thiadiazol-2-yl)methyl)-3,4-diphenyl-5-(piperazine-1-carbonyl)-1H-imidazol-2(3H)-one], with > 1 µM.
Next, `O=C(c1c(-c2ccccc2)n(-c2ccccc2)c(=O)n1Cc1c[nH]cn1)N1CCNCC1` [Example 49, 1-((1H-Imidazol-4-yl)methyl)-3,4-diphenyl-5-(piperazine-1-carbonyl)-1H-imidazol-2(3H)-one]: > 1 µM; `Nc1nc(Cn2c(C(=O)N3CCNCC3)c(-c3ccccc3)n(-c3ccccc3)c2=O)cs1` [Example 50, 1-((2-Aminothiazol-4-yl)methyl)-3,4-diphenyl-5-(piperazine-1-carbonyl)-1H-imidazol-2(3H)-one]: 0.5 to 1 µM; `O=C(c1c(-c2ccccc2)n(-c2ccccc2)c(=O)n1Cc1cccc(F)c1)N1CCNCC1` [Example 51, 1-(3-Fluorobenzyl)-3,4-diphenyl-5-(piperazine-1-carbonyl)-1H-imidazol-2(3H)-one]: 0.1 to 0.5 µM.
Regarding `O=C(c1c(-c2ccccc2)n(-c2ccccc2)c(=O)n1Cc1ccc(F)c(F)c1)N1CCNCC1` [Example 52, 1-(3,4-Difluorobenzyl)-3,4-diphenyl-5-(piperazine-1-carbonyl)-1H-imidazol-2(3H)-one], the IC50 is 0.1 to 0.5 µM.
For the compound `O=C(c1c(-c2ccccc2)n(-c2ccccc2)c(=O)n1CC1CCOCC1)N1CCNCC1` [Example 53, 1,5-Diphenyl-4-(piperazine-1-carbonyl)-3-((tetrahydro-2H-pyran-4-yl)methyl)-1H-imidazol-2(3H)-one], the IC50 was > 1 µM.
Then `Cn1c(C(=O)N2CCNCC2)c(-c2ccccc2)n(-c2ccccc2)c1=O` [Example 54, 1-Methyl-3,4-diphenyl-5-(piperazine-1-carbonyl)-1H-imidazol-2(3H)-one], with > 1 µM.
Then `Cn1c(C(=O)N2CCNC[C@H]2Cc2ccccc2)c(-c2ccccc2)n(-c2cccc(N3CCOCC3)c2)c1=O` [Example 55, (R)-4-(2-Benzylpiperazine-1-carbonyl)-3-methyl-1-(3-morpholinophenyl)-5-phenyl-1H-imidazol-2(3H)-one], with 0.1 to 0.5 µM.
Then `O=C(c1c(-c2ccccc2)n(-c2cccc(N3CCOCC3)c2)c(=O)n1Cc1ccccc1)N1CCNCC1` [Example 56, 1-Benzyl-3-(3-morpholinophenyl)-4-phenyl-5-(piperazine-1-carbonyl)-1H-imidazol-2(3H)-one], with 0.1 to 0.5 µM.
`O=C(c1cccc(Cn2c(C(=O)N3CCNCC3)c(-c3ccccc3)n(-c3cccc(N4CCOCC4)c3)c2=O)c1)N1CCOCC1` [Example 57, 1-(3-(Morpholine-4-carbonyl)benzyl)-3-(3-morpholinophenyl)-4-phenyl-5-(piperazine-1-carbonyl)-1H-imidazol-2(3H)-one]: the IC50 was > 1 µM.
Next, `O=C(c1cccc(Cn2c(C(=O)N3CCNCC3)c(-c3ccccc3)n(-c3cccc(N4CCOCC4)c3)c2=O)c1)N1CCCCC1` [Example 58, 1-(3-Morpholinophenyl)-5-phenyl-4-(piperazine-1-carbonyl)-3-(3-(piperidine-1-carbonyl)benzyl)-1H-imidazol-2(3H)-one]: > 1 µM.
Then `O=C(O)COc1cccc(Cn2c(C(=O)N3CCNCC3)c(-c3ccccc3)n(-c3cccc(N4CCOCC4)c3)c2=O)c1` [Example 59, 2-(3-((3-(3-Morpholinophenyl)-2-oxo-4-phenyl-5-(piperazine-1-carbonyl)-2,3-dihydro-1H-imidazol-1-yl)methyl)phenoxy)acetic acid], with > 1 µM; and `Cn1c(C(=O)N2CCNCC2)c(-c2ccccc2)n(C2CCCCC2)c1=O` [Example 60, 1-Cyclohexyl-3-methyl-5-phenyl-4-(piperazine-1-carbonyl)-1H-imidazol-2(3H)-one], with > 1 µM; and `CC(C)NC(=O)NCCCn1c(C(=O)N2CCNCC2)c(-c2ccccc2)n(-c2cccc(N3CCOCC3)c2)c1=O` [Example 61, 1-Isopropyl-3-(3-(3-(3-morpholinophenyl)-2-oxo-4-phenyl-5-(piperazine-1-carbonyl)-2,3-dihydro-1H-imidazol-1-yl)propyl)urea], with > 1 µM.
Then `C=CCn1c(C(=O)N2CCNCC2)c(-c2ccccc2)n(C2CCCCC2)c1=O` [Example 62, 1-Allyl-3-cyclohexyl-4-phenyl-5-(piperazine-1-carbonyl)-1H-imidazol-2(3H)-one], with > 1 µM; and `NC(=O)Cn1c(C(=O)N2CCNCC2)c(-c2ccccc2)n(C2CCCCC2)c1=O` [Example 63, 2-(3-Cyclohexyl-2-oxo-4-phenyl-5-(piperazine-1-carbonyl)-2,3-dihydro-1H-imidazol-1-yl)acetamide], with > 1 µM.
In the case of `C=CCn1c(C(=O)N2CCNC[C@H]2Cc2ccccc2)c(-c2ccccc2)n(C2CCCCC2)c1=O` [Example 64, (R)-1-Allyl-5-(2-benzylpiperazine-1-carbonyl)-3-cyclohexyl-4-phenyl-1H-imidazol-2(3H)-one], the IC50 is < 0.1 µM.
Turning to `Cn1c(C(=O)N2CCNC[C@H]2Cc2ccccc2)c(-c2ccccc2)n(C2CCCCC2)c1=O` [Example 65, (R)-4-(2-Benzylpiperazine-1-carbonyl)-1-cyclohexyl-3-methyl-5-phenyl-1H-imidazol-2(3H)-one], the IC50 is < 0.1 µM.
Next, `COCCn1c(C(=O)N2CCNC[C@H]2Cc2ccccc2)c(-c2ccccc2)n(C2CCCCC2)c1=O` [Example 66, (R)-4-(2-Benzylpiperazine-1-carbonyl)-1-cyclohexyl-3-(2-methoxyethyl)-5-phenyl-1H-imidazol-2(3H)-one]: < 0.1 µM; `NC(=O)Cn1c(C(=O)N2CCNC[C@H]2Cc2ccccc2)c(-c2ccccc2)n(C2CCCCC2)c1=O` [Example 67, (R)-2-(5-(2-Benzylpiperazine-1-carbonyl)-3-cyclohexyl-2-oxo-4-phenyl-2,3-dihydro-1H-imidazol-1-yl)acetamide]: 0.1 to 0.5 µM; `COC(=O)C(c1ccccc1)n1c(C(=O)N2CCNCC2)c(-c2ccccc2)n(C2CCCCC2)c1=O` (centres unmarked) [Example 68, Methyl 2-(3-cyclohexyl-2-oxo-4-phenyl-5-(piperazine-1-carbonyl)-2,3-dihydro-1H-imidazol-1-yl)-2-phenylacetate]: > 1 µM.
`CC(c1ccccc1)n1c(C(=O)N2CCNCC2)c(-c2ccccc2)n(C2CCCCC2)c1=O` (centres unmarked) [Example 69, 1-Cyclohexyl-5-phenyl-3-(1-phenylethyl)-4-(piperazine-1-carbonyl)-1H-imidazol-2(3H)-one]: the IC50 was in the range of 0.1 to 0.5 µM.
Next, `O=C(c1c(-c2ccccc2)n(C2CCCCC2)c(=O)n1CCc1ccccc1)N1CCNCC1` [Example 71, 1-Cyclohexyl-3-phenethyl-5-phenyl-4-(piperazine-1-carbonyl)-1H-imidazol-2(3H)-one]: 0.1 to 0.5 µM; `O=C(c1c(-c2ccccc2)n(C2CCCCC2)c(=O)n1Cc1cccc(-n2cccc2)c1)N1CCNCC1` [Example 72, 1-(3-(1H-Pyrrol-1-yl)benzyl)-3-cyclohexyl-4-phenyl-5-(piperazine-1-carbonyl)-1H-imidazol-2(3H)-one]: 0.1 to 0.5 µM; `Cc1ccccc1-n1c(-c2ccccc2)c(C(=O)N2CCNCC2)n(Cc2cccc(OCCOc3ccccc3)c2)c1=O` [Example 73, 1-(3-(2-Phenoxyethoxy)benzyl)-4-phenyl-5-(piperazine-1-carbonyl)-3-o-tolyl-1H-imidazol-2(3H)-one]: 0.1 to 0.5 µM.
As to `O=C(c1c(-c2ccccc2)n(-c2cccc(N3CCOCC3)c2)c(=O)n1Cc1cccc(Oc2ccccc2)c1)N1CCNCC1` [Example 74, 1-(3-Morpholinophenyl)-3-(3-phenoxybenzyl)-5-phenyl-4-(piperazine-1-carbonyl)-1H-imidazol-2(3H)-one], the concentration for half-maximal inhibition (IC50) is < 0.1 µM.

These data come from patent US8148367B2 (Takeda Pharmaceutical Company Limited, priority 2008, dated 2012).
